{"source": "ChEMBL document CHEMBL4308870", "about": "“Discovery and SAR studies of novel 2-anilinopyrimidine-based selective inhibitors against triple-negative breast cancer cell line MDA-MB-468” (2019)", "data": [{"tested_on": "MCF7", "test": "cells", "type": "functional", "conditions": "Homo sapiens, MCF7, 48 h", "units": {"GI50": "µM"}, "description": "Growth inhibition of human MCF7 cells after 48 hrs by MTT assay", "values": [{"smiles": "CC1CCN(c2ccnc(Nc3ccc(OCCCN4CCCCC4)cc3)n2)CC1", "GI50": 28.1}, {"smiles": "CCN(CC)c1ccnc(Nc2ccc(OCCCN3CCCCC3)cc2)n1", "GI50": 18.3}, {"smiles": "CCN(CC)CCCOc1ccc(Nc2nccc(N3CCC(C)CC3)n2)cc1", "GI50": "> 30"}, {"smiles": "CC1CCN(c2ccnc(Nc3ccc(OCCCN4CCOCC4)cc3)n2)CC1", "GI50": "> 30"}, {"smiles": "c1cc(N2CCCCC2)nc(Nc2ccc(OCCCN3CCCCC3)cc2)n1", "GI50": "> 30"}, {"smiles": "ClC1CCN(c2ccnc(Nc3ccc(OCCCN4CCCCC4)cc3)n2)CC1", "GI50": "> 30"}, {"smiles": "c1cc(N2CCCCC2)nc(Nc2ccc(OCCCN3CCOCC3)cc2)n1", "GI50": "> 30"}, {"smiles": "CCN(CC)c1ccnc(Nc2ccc(OCCCN3CCSCC3)cc2)n1", "GI50": 27.3}]}, {"tested_on": "MDA-MB-468", "test": "cells", "type": "functional", "conditions": "Homo sapiens, MDA-MB-468, 48 h", "units": {"GI50": "µM"}, "description": "Growth inhibition of EGFR over-expressing human MDA-MB-468 cells after 48 hrs by MTT assay", "values": [{"smiles": "CC1CCN(c2ccnc(Nc3ccc(OCCCN4CCCCC4)cc3)n2)CC1", "GI50": 6.4}, {"smiles": "CCN(CC)c1ccnc(Nc2ccc(OCCCN3CCCCC3)cc2)n1", "GI50": 11.4}, {"smiles": "CCN(CC)CCCOc1ccc(Nc2nccc(N3CCC(C)CC3)n2)cc1", "GI50": 6.9}, {"smiles": "CC1CCN(c2ccnc(Nc3ccc(OCCCN4CCOCC4)cc3)n2)CC1", "GI50": 16.3}, {"smiles": "c1cc(N2CCCCC2)nc(Nc2ccc(OCCCN3CCCCC3)cc2)n1", "GI50": 9.2}, {"smiles": "ClC1CCN(c2ccnc(Nc3ccc(OCCCN4CCCCC4)cc3)n2)CC1", "GI50": 11.5}, {"smiles": "c1cc(N2CCCCC2)nc(Nc2ccc(OCCCN3CCOCC3)cc2)n1", "GI50": 18.3}, {"smiles": "CCN(CC)c1ccnc(Nc2ccc(OCCCN3CCSCC3)cc2)n1", "GI50": 7.6}]}, {"tested_on": "MDA-MB-468", "test": "Cytotoxicity against EGFR over-expressing human MDA-MB-468 cells assessed as cell viability at 10 uM after 48 hrs by MTT assay relative to control", "type": "functional", "conditions": "MDA-MB-468, 48 h, read-out: Activity", "units": {"viability at 10 µM": "%"}, "values": [{"smiles": "CN1CCN(c2ccnc(Nc3ccc(OCCCN4CCSCC4)cc3)n2)CC1", "viability at 10 µM": 56.5}, {"smiles": "c1cc(N2CCSCC2)nc(Nc2ccc(OCCCN3CCSCC3)cc2)n1", "viability at 10 µM": 65}, {"smiles": "ClC1CCN(c2ccnc(Nc3ccc(OCCCN4CCOCC4)cc3)n2)CC1", "viability at 10 µM": 61.6}, {"smiles": "c1cc(N2CCOCC2)nc(Nc2ccc(OCCCN3CCOCC3)cc2)n1", "viability at 10 µM": 84.5}, {"smiles": "CCN(CC)CCCOc1ccc(Nc2nccc(N3CCSCC3)n2)cc1", "viability at 10 µM": 88}, {"smiles": "CN1CCN(c2ccnc(Nc3ccc(OCCCN4CCCCC4)cc3)n2)CC1", "viability at 10 µM": 71.7}, {"smiles": "c1cc(N2CCOCC2)nc(Nc2ccc(OCCCN3CCSCC3)cc2)n1", "viability at 10 µM": 57.4}, {"smiles": "CC1CCN(c2ccnc(Nc3ccc(OCCCN4CCCCC4)cc3)n2)CC1", "viability at 10 µM": 21.3}, {"smiles": "CCN(CC)c1ccnc(Nc2ccc(OCCCN3CCCCC3)cc2)n1", "viability at 10 µM": 53.1}, {"smiles": "CCN(CC)CCCOc1ccc(Nc2nccc(N3CCC(C)CC3)n2)cc1", "viability at 10 µM": 16.9}, {"smiles": "CN1CCN(c2ccnc(Nc3ccc(OCCCN4CCOCC4)cc3)n2)CC1", "viability at 10 µM": 80.7}, {"smiles": "c1cc(N2CCCC2)nc(Nc2ccc(OCCCN3CCCCC3)cc2)n1", "viability at 10 µM": 58.1}, {"smiles": "c1cc(N2CCSCC2)nc(Nc2ccc(OCCCN3CCCCC3)cc2)n1", "viability at 10 µM": 78.1}, {"smiles": "CC1CCN(c2ccnc(Nc3ccc(OCCCN4CCSCC4)cc3)n2)CC1", "viability at 10 µM": 61.3}, {"smiles": "ClC1CCN(c2ccnc(Nc3ccc(OCCCN4CCSCC4)cc3)n2)CC1", "viability at 10 µM": 62.7}, {"smiles": "CC1CCN(c2ccnc(Nc3ccc(OCCCN4CCOCC4)cc3)n2)CC1", "viability at 10 µM": 51.3}, {"smiles": "c1cc(N2CCCCC2)nc(Nc2ccc(OCCCN3CCCCC3)cc2)n1", "viability at 10 µM": 45.1}, {"smiles": "c1cc(N2CCOCC2)nc(Nc2ccc(OCCCN3CCCCC3)cc2)n1", "viability at 10 µM": 86.8}, {"smiles": "COc1cc2ncnc(Nc3ccc(F)c(Cl)c3)c2cc1OCCCN1CCOCC1", "note": "[GEFITINIB]", "viability at 10 µM": 60.3}, {"smiles": "c1cc(N2CCCC2)nc(Nc2ccc(OCCCN3CCSCC3)cc2)n1", "viability at 10 µM": 78.3}, {"smiles": "CCN(CC)CCCOc1ccc(Nc2nccc(N3CCCCC3)n2)cc1", "viability at 10 µM": 62}, {"smiles": "CCN(CC)CCCOc1ccc(Nc2nccc(N3CCN(C)CC3)n2)cc1", "viability at 10 µM": 64.6}, {"smiles": "c1cc(N2CCCCC2)nc(Nc2ccc(OCCCN3CCSCC3)cc2)n1", "viability at 10 µM": 71.8}, {"smiles": "CCN(CC)c1ccnc(Nc2ccc(OCCCN3CCOCC3)cc2)n1", "viability at 10 µM": 69.7}, {"smiles": "CCN(CC)CCCOc1ccc(Nc2nccc(N3CCCC3)n2)cc1", "viability at 10 µM": 69.7}, {"smiles": "c1cc(N2CCCC2)nc(Nc2ccc(OCCCN3CCOCC3)cc2)n1", "viability at 10 µM": 77.1}, {"smiles": "ClC1CCN(c2ccnc(Nc3ccc(OCCCN4CCCCC4)cc3)n2)CC1", "viability at 10 µM": 52.1}, {"smiles": "c1cc(N2CCCCC2)nc(Nc2ccc(OCCCN3CCOCC3)cc2)n1", "viability at 10 µM": 55.2}, {"smiles": "c1cc(N2CCSCC2)nc(Nc2ccc(OCCCN3CCOCC3)cc2)n1", "viability at 10 µM": 73.4}, {"smiles": "CCN(CC)c1ccnc(Nc2ccc(OCCCN3CCSCC3)cc2)n1", "viability at 10 µM": 36}, {"smiles": "CCN(CC)CCCOc1ccc(Nc2nccc(N3CCOCC3)n2)cc1", "viability at 10 µM": 79.4}]}, {"tested_on": "MCF7", "test": "Cytotoxicity against human MCF7 cells assessed as cell viability at 10 uM after 48 hrs by MTT assay relative to control", "type": "functional", "conditions": "MCF7, 48 h, read-out: Activity", "units": {"viability at 10 µM": "%"}, "values": [{"smiles": "CN1CCN(c2ccnc(Nc3ccc(OCCCN4CCSCC4)cc3)n2)CC1", "viability at 10 µM": 79.8}, {"smiles": "c1cc(N2CCSCC2)nc(Nc2ccc(OCCCN3CCSCC3)cc2)n1", "viability at 10 µM": 77.8}, {"smiles": "ClC1CCN(c2ccnc(Nc3ccc(OCCCN4CCOCC4)cc3)n2)CC1", "viability at 10 µM": 93.3}, {"smiles": "c1cc(N2CCOCC2)nc(Nc2ccc(OCCCN3CCOCC3)cc2)n1", "viability at 10 µM": 83.2}, {"smiles": "CCN(CC)CCCOc1ccc(Nc2nccc(N3CCSCC3)n2)cc1", "viability at 10 µM": 86.4}, {"smiles": "CN1CCN(c2ccnc(Nc3ccc(OCCCN4CCCCC4)cc3)n2)CC1", "viability at 10 µM": 76.9}, {"smiles": "c1cc(N2CCOCC2)nc(Nc2ccc(OCCCN3CCSCC3)cc2)n1", "viability at 10 µM": 67.9}, {"smiles": "CC1CCN(c2ccnc(Nc3ccc(OCCCN4CCCCC4)cc3)n2)CC1", "viability at 10 µM": 73.7}, {"smiles": "CCN(CC)c1ccnc(Nc2ccc(OCCCN3CCCCC3)cc2)n1", "viability at 10 µM": 69.7}, {"smiles": "CCN(CC)CCCOc1ccc(Nc2nccc(N3CCC(C)CC3)n2)cc1", "viability at 10 µM": 93.2}, {"smiles": "CN1CCN(c2ccnc(Nc3ccc(OCCCN4CCOCC4)cc3)n2)CC1", "viability at 10 µM": 89.6}, {"smiles": "c1cc(N2CCCC2)nc(Nc2ccc(OCCCN3CCCCC3)cc2)n1", "viability at 10 µM": 66.1}, {"smiles": "c1cc(N2CCSCC2)nc(Nc2ccc(OCCCN3CCCCC3)cc2)n1", "viability at 10 µM": 60}, {"smiles": "CC1CCN(c2ccnc(Nc3ccc(OCCCN4CCSCC4)cc3)n2)CC1", "viability at 10 µM": 79.5}, {"smiles": "ClC1CCN(c2ccnc(Nc3ccc(OCCCN4CCSCC4)cc3)n2)CC1", "viability at 10 µM": 87.7}, {"smiles": "CC1CCN(c2ccnc(Nc3ccc(OCCCN4CCOCC4)cc3)n2)CC1", "viability at 10 µM": 71.8}, {"smiles": "c1cc(N2CCCCC2)nc(Nc2ccc(OCCCN3CCCCC3)cc2)n1", "viability at 10 µM": 86.7}, {"smiles": "c1cc(N2CCOCC2)nc(Nc2ccc(OCCCN3CCCCC3)cc2)n1", "viability at 10 µM": 95.7}, {"smiles": "COc1cc2ncnc(Nc3ccc(F)c(Cl)c3)c2cc1OCCCN1CCOCC1", "note": "[GEFITINIB]", "viability at 10 µM": 70.3}, {"smiles": "c1cc(N2CCCC2)nc(Nc2ccc(OCCCN3CCSCC3)cc2)n1", "viability at 10 µM": 84.7}, {"smiles": "CCN(CC)CCCOc1ccc(Nc2nccc(N3CCCCC3)n2)cc1", "viability at 10 µM": 95.4}, {"smiles": "CCN(CC)CCCOc1ccc(Nc2nccc(N3CCN(C)CC3)n2)cc1", "viability at 10 µM": 67}, {"smiles": "c1cc(N2CCCCC2)nc(Nc2ccc(OCCCN3CCSCC3)cc2)n1", "viability at 10 µM": 72.9}, {"smiles": "CCN(CC)c1ccnc(Nc2ccc(OCCCN3CCOCC3)cc2)n1", "viability at 10 µM": 94.9}, {"smiles": "CCN(CC)CCCOc1ccc(Nc2nccc(N3CCCC3)n2)cc1", "viability at 10 µM": 78.5}, {"smiles": "c1cc(N2CCCC2)nc(Nc2ccc(OCCCN3CCOCC3)cc2)n1", "viability at 10 µM": 89}, {"smiles": "ClC1CCN(c2ccnc(Nc3ccc(OCCCN4CCCCC4)cc3)n2)CC1", "viability at 10 µM": 87.1}, {"smiles": "c1cc(N2CCCCC2)nc(Nc2ccc(OCCCN3CCOCC3)cc2)n1", "viability at 10 µM": 61.8}, {"smiles": "c1cc(N2CCSCC2)nc(Nc2ccc(OCCCN3CCOCC3)cc2)n1", "viability at 10 µM": 86.1}, {"smiles": "CCN(CC)c1ccnc(Nc2ccc(OCCCN3CCSCC3)cc2)n1", "viability at 10 µM": 91.9}, {"smiles": "CCN(CC)CCCOc1ccc(Nc2nccc(N3CCOCC3)n2)cc1", "viability at 10 µM": 66.5}]}, {"tested_on": "not listed separately", "test": "Selectivity index, ratio of GI50 for human MCF7 cells to GI50 for EGFR over-expressing human MDA-MB-468 cells", "type": "functional", "conditions": "not given", "values": [{"smiles": "CC1CCN(c2ccnc(Nc3ccc(OCCCN4CCCCC4)cc3)n2)CC1", "RatioGI50": 4.4}, {"smiles": "CCN(CC)c1ccnc(Nc2ccc(OCCCN3CCCCC3)cc2)n1", "RatioGI50": 1.6}, {"smiles": "CCN(CC)CCCOc1ccc(Nc2nccc(N3CCC(C)CC3)n2)cc1", "RatioGI50": ">4.3"}, {"smiles": "CC1CCN(c2ccnc(Nc3ccc(OCCCN4CCOCC4)cc3)n2)CC1", "RatioGI50": ">1.8"}, {"smiles": "c1cc(N2CCCCC2)nc(Nc2ccc(OCCCN3CCCCC3)cc2)n1", "RatioGI50": ">3.3"}, {"smiles": "ClC1CCN(c2ccnc(Nc3ccc(OCCCN4CCCCC4)cc3)n2)CC1", "RatioGI50": ">2.6"}, {"smiles": "CCN(CC)c1ccnc(Nc2ccc(OCCCN3CCSCC3)cc2)n1", "RatioGI50": 3.6}]}]}
